Results: US11972843B2, “Systems and methods for predicting adverse events and assessing level of sedation during medical procedures” (Massachusetts Institute of Technology, priority 2015, dated 2024)

System: patients receiving propofol during procedural sedation
Details: 23 patients; per patient, average of the pharmacokinetic-model effect-site concentrations at end of procedure with all boluses and with the last bolus removed
Text: The start and end of the procedure were marked by the clinical staff who collected the data. The average of the “all drugs” value and the “last drug removed” value at the time of the end of the procedure constitutes, in this illustrative embodiment, an estimate of the titration threshold that the clinician aims to remain above between the start and end of the procedure.
The titration threshold for each patient was established as described in connection with FIG. 17, namely: the start and end of the procedure were marked by the clinical staff who collected the data; the end-procedure effect-site concentration, shown on the y-axis, of each patient was estimated with all drug administrations, and again without the final bolus administration; and the average of these two values was taken as the estimated titration threshold for that patient. […] The titration threshold is estimated at the time the procedure ends since the proceduralist deems it necessary to administer a final bolus in order to render the patient's sedation level sufficient to endure the procedure.

In the case of CC(C)c1cccc(C(C)C)c1O [propofol], the “mean of the estimated titration thresholds (end-procedure effect-site concentration)” value is reported as 1.72 micrograms/milliliter.
